From the supplement of paper PMC11061612

Experiments:
AZD5363 = compound: C1CN(CCC1(C(=O)N[C@@H](CCO)C2=CC=C(C=C2)Cl)N)C3=NC=NC4=C3C=CN4 [AZD5363]; details: max 10 µM
Outline: (§1)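 Cancer cell lines were dosed for 72 hours (final DMSO typically 0.2%) after 24 hours at 37°C and 5% CO2 in 1536-well plates containing 7.5 μl DMEM/F12 or RPMI with 10% FBS. Viability came from CellTiter-Glo 2.0 luminescence, scaled between blank-well and DMSO-well means, and dose responses were fitted to a two-parameter logistic curve with a non-linear mixed effects model. The single-agent IC50 was obtained from this fit.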

AZD1775 = compound: C=CCn1c(=O)c2cnc(Nc3ccc(N4CCN(C)CC4)cc3)nc2n1-c1cccc(C(C)(C)O)n1 [AZD1775]
Outline: as §1

AZD4320 = compound: CN(CC[C@H](CSC1=CC=CC=C1)NC2=C(C=C(C=C2)S(=O)(=O)NC(=O)C3=CC=C(C=C3)N4CCC(CC4)[C@H](C5=CC=CC=C5C6=CC=C(C=C6)Cl)O)S(=O)(=O)C(F)(F)F)CCO [AZD4320]; details: max 1 µM
Outline: as §1

AZD5153 = compound: COc1nnc2ccc(N3CCC(c4ccc(OCCN5CCN(C)C(=O)[C@H]5C)cc4)CC3)nn12 [AZD5153]; details: max 1 µM
Outline: as §1

AZD5991 = compound: Cc1c2c(nn1C)CSCc1cc(n(C)n1)CSc1cc(c3ccccc3c1)OCCCc1c(C(=O)O)n(C)c3c-2c(Cl)ccc13 [AZD5991]; details: max 1 µM
Outline: as §1

Savolitinib = compound: C[C@@H](c1ccc2nccn2c1)n1nnc2ncc(-c3cnn(C)c3)nc21 [Savolitinib]; details: max 1 µM
Outline: as §1

AZD7648 = compound: Cc1cc2ncnn2cc1Nc1ncc2c(n1)n(C1CCOCC1)c(=O)n2C [AZD7648]; details: max 10 µM
Outline: as §1

SN-38 = compound: CCc1c2c(nc3ccc(O)cc13)-c1cc3c(c(=O)n1C2)COC(=O)[C@]3(O)CC [SN-38]; details: max 0.3 µM
Outline: as §1

Palbociclib = compound: CC(=O)c1c(C)c2cnc(Nc3ccc(N4CCNCC4)cn3)nc2n(C2CCCC2)c1=O [Palbociclib]; details: max 10 µM
Outline: as §1

SRA737 = compound: N#Cc1cnc(Nc2cc(NC[C@H]3CNCCO3)c(C(F)(F)F)cn2)cn1 [SRA737]; details: max 10 µM
Outline: as §1

MK-2206 = compound: NC1(c2ccc(-c3nc4ccn5c(=O)[nH]nc5c4cc3-c3ccccc3)cc2)CCC1 [MK-2206]; details: max 10 µM
Outline: as §1

AZD6738 = compound: C[C@@H]1COCCN1C2=NC(=NC(=C2)C3(CC3)[S@](=N)(=O)C)C4=C5C=CNC5=NC=C4 [AZD6738]; details: max 10 µM
Outline: as §1

AZD8186 = compound: C[C@@H](Nc1cc(F)cc(F)c1)c1cc(C(=O)N(C)C)cc2c(=O)cc(N3CCOCC3)oc12 [AZD8186]; details: max 10 µM
Outline: as §1

Taselisib = compound: Cc1nc(-c2cn3c(n2)-c2ccc(-c4cnn(C(C)(C)C(N)=O)c4)cc2OCC3)n(C(C)C)n1 [Taselisib]; details: max 10 µM
Outline: as §1

Carboplatin = compound: C1CC(C1)(C(=O)[O-])C(=O)[O-].N.N.[Pt+2] [Carboplatin]; details: max 10 µM
Outline: as §1

Alisertib = compound: COc1cc(Nc2ncc3c(n2)-c2ccc(Cl)cc2C(c2c(F)cccc2OC)=NC3)ccc1C(=O)O [Alisertib]; details: max 10 µM
Outline: as §1

Gemcitabine = compound: Nc1ccn([C@@H]2O[C@H](CO)[C@@H](O)C2(F)F)c(=O)n1 [Gemcitabine]; details: max 0.3 µM
Outline: as §1

Gefitinib = compound: COc1cc2ncnc(Nc3ccc(F)c(Cl)c3)c2cc1OCCCN1CCOCC1 [Gefitinib]; details: max 10 µM
Outline: as §1

Prexasertib = compound: COc1cccc(OCCCN)c1-c1cc(Nc2cnc(C#N)cn2)n[nH]1 [Prexasertib]; details: max 1 µM
Outline: as §1

SG3199 = compound: CC1=CN2[C@@H](C1)C=NC3=CC(=C(C=C3C2=O)OC)OCCCCCOC4=C(C=C5C(=C4)N=C[C@@H]6CC(=CN6C5=O)C)OC [SG3199]; details: max 0.001 µM
Outline: as §1

Paclitaxel = compound: CC(=O)O[C@H]1C(=O)[C@@]2(C)[C@H]([C@H](OC(=O)c3ccccc3)[C@]3(O)C[C@H](OC(=O)[C@H](O)[C@@H](NC(=O)c4ccccc4)c4ccccc4)C(C)=C1C3(C)C)[C@]1(OC(C)=O)CO[C@@H]1C[C@@H]2O [Paclitaxel]; details: max 3 µM
Outline: as §1

AZD2811 = compound: CCN(CCO)CCCOc1ccc2c(Nc3cc(CC(=O)Nc4cccc(F)c4)[nH]n3)ncnc2c1 [AZD2811]; details: max 1 µM
Outline: as §1

AZD1390 = compound: CC(C)n1c(=O)n(C)c2cnc3cc(F)c(-c4ccc(OCCCN5CCCCC5)nc4)cc3c21 [AZD1390]; details: max 0.3 µM
Outline: as §1

Trametinib = compound: CC(=O)Nc1cccc(-n2c(=O)n(C3CC3)c(=O)c3c(Nc4ccc(I)cc4F)n(C)c(=O)c(C)c32)c1 [Trametinib]; details: max 1 µM
Outline: as §1

Etoposide = compound: COc1cc([C@@H]2c3cc4c(cc3[C@@H](O[C@@H]3O[C@@H]5CO[C@@H](C)O[C@H]5[C@H](O)[C@H]3O)[C@H]3COC(=O)[C@H]23)OCO4)cc(OC)c1O [Etoposide]; details: max 10 µM
Outline: as §1

Crizotinib = compound: C[C@@H](Oc1cc(-c2cnn(C3CCNCC3)c2)cnc1N)c1c(Cl)ccc(F)c1Cl [Crizotinib]; details: max 10 µM
Outline: as §1

Lapatinib = compound: CS(=O)(=O)CCNCc1ccc(-c2ccc3ncnc(Nc4ccc(OCc5cccc(F)c5)c(Cl)c4)c3c2)o1 [Lapatinib]; details: max 10 µM
Outline: as §1

Dasatinib = compound: CC1=C(C(=CC=C1)Cl)NC(=O)C2=CN=C(S2)NC3=CC(=NC(=N3)C)N4CCN(CC4)CCO [Dasatinib]; details: max 2 µM
Outline: as §1

AZD0156 = compound: CN(C)CCCOc1ccc(-c2ccc3ncc4c(c3c2)n(C2CCOCC2)c(=O)n4C)cn1 [AZD0156]
Outline: as §1

Selumetinib = compound: Cn1cnc2c(F)c(Nc3ccc(Br)cc3Cl)c(C(=O)NOCCO)cc21 [Selumetinib]; details: max 10 µM
Outline: as §1

5-Fluorouracil = compound: O=c1[nH]cc(F)c(=O)[nH]1 [5-Fluorouracil]; details: max 20 µM
Outline: as §1

Olaparib = compound: O=C(c1cc(Cc2n[nH]c(=O)c3ccccc23)ccc1F)N1CCN(C(=O)C2CC2)CC1 [Olaparib]; details: max 10 µM
Outline: as §1

Doxorubicin = compound: COc1cccc2c1C(=O)c1c(O)c3c(c(O)c1C2=O)C[C@@](O)(C(=O)CO)C[C@@H]3O[C@H]1C[C@H](N)[C@H](O)[C@H](C)O1 [Doxorubicin]; details: max 1 µM
Outline: as §1

[1] = compound: O=C(Nc1ccc2[nH]nc(-c3ccncc3)c2c1)[C@@H]1CCN(CC(=O)N2CCN(c3ccc(-c4ncccn4)cc3)CC2)C1; details: max 5 µM
Outline: as §1

Venetoclax = compound: CC1(C)CCC(CN2CCN(c3ccc(C(=O)NS(=O)(=O)c4ccc(NCC5CCOCC5)c([N+](=O)[O-])c4)c(Oc4cnc5[nH]ccc5c4)c3)CC2)=C(c2ccc(Cl)cc2)C1 [Venetoclax]; details: max 1 µM
Outline: as §1

Cell Line	IC50, cell viability 72 h (AZD5363) [nM]	IC50, cell viability 72 h (AZD1775; max 3 µM) [nM]	IC50, cell viability 72 h (AZD4320) [nM]	IC50, cell viability 72 h (AZD5153) [nM]	IC50, cell viability 72 h (AZD5991) [nM]	IC50, cell viability 72 h (Savolitinib) [nM]	IC50, cell viability 72 h (AZD7648) [nM]	IC50, cell viability 72 h (SN-38) [nM]	IC50, cell viability 72 h (Palbociclib) [nM]	IC50, cell viability 72 h (SRA737) [nM]	IC50, cell viability 72 h (MK-2206) [nM]	IC50, cell viability 72 h (AZD6738) [nM]	IC50, cell viability 72 h (AZD8186) [nM]	IC50, cell viability 72 h (Taselisib) [nM]	IC50, cell viability 72 h (Carboplatin) [nM]	IC50, cell viability 72 h (Alisertib) [nM]	IC50, cell viability 72 h (Gemcitabine) [nM]	IC50, cell viability 72 h (Gefitinib) [nM]	IC50, cell viability 72 h (Prexasertib) [nM]	IC50, cell viability 72 h (SG3199) [nM]	IC50, cell viability 72 h (Paclitaxel) [nM]	IC50, cell viability 72 h (AZD2811) [nM]	IC50, cell viability 72 h (AZD1390) [nM]	IC50, cell viability 72 h (Trametinib) [nM]	IC50, cell viability 72 h (Etoposide) [nM]	IC50, cell viability 72 h (Crizotinib) [nM]	IC50, cell viability 72 h (Lapatinib) [nM]	IC50, cell viability 72 h (Dasatinib) [nM]	IC50, cell viability 72 h (AZD0156; max 3 µM) [nM]	IC50, cell viability 72 h (Selumetinib) [nM]	IC50, cell viability 72 h (5-Fluorouracil) [nM]	IC50, cell viability 72 h (Olaparib) [nM]	IC50, cell viability 72 h (Doxorubicin) [nM]	IC50, cell viability 72 h [1] [nM]	IC50, cell viability 72 h (Venetoclax) [nM]	IC50, cell viability 72 h (AZD1775; max 1 µM) [nM]	IC50, cell viability 72 h (AZD0156; max 1 µM) [nM]
A673 (Ewing's Sarcoma)	> 10000	> 3000	169	> 1000	> 1000	> 1000	> 10000	2.59	> 10000	> 10000	> 10000	1980	> 10000	6720	> 10000	1460	17.8	> 10000	34.4	> 1	6.99	132	> 300	> 1000	2270	> 10000	> 10000	> 2000	> 3000	> 10000	> 20000	> 10000	284	> 5000	> 1000	–	–
GAMG (Glioblastoma)	8420	1690	> 1000	> 1000	> 1000	> 1000	> 10000	55.5	> 10000	> 10000	> 10000	> 10000	2980	3590	> 10000	2460	88.1	> 10000	82.9	> 1	7.35	> 1000	> 300	> 1000	4440	> 10000	> 10000	1710	> 3000	> 10000	> 20000	> 10000	237	> 5000	> 1000	–	–
SNU-16 (Gastric Carcinoma)	> 10000	–	> 1000	241	170	> 1000	> 10000	22.9	6230	1200	> 10000	754	> 10000	> 10000	> 10000	106	6.96	9590	10.1	> 1	< 3	479	> 300	> 1000	5560	2800	> 10000	> 2000	–	> 10000	> 20000	> 10000	301	> 5000	> 1000	522	> 1000
OVCAR-5 (Ovarian Carcinoma)	> 10000	> 3000	> 1000	677	> 1000	> 1000	> 10000	> 300	> 10000	> 10000	> 10000	5140	> 10000	2070	> 10000	> 10000	> 300	> 10000	40.5	> 1	120	> 1000	> 300	89.6	> 10000	> 10000	> 10000	381	> 3000	2150	> 20000	> 10000	> 1000	1660	> 1000	–	–
YAPC (Pancreatic Carcinoma)	> 10000	> 3000	> 1000	> 1000	> 1000	> 1000	> 10000	113	> 10000	> 10000	> 10000	> 10000	> 10000	> 10000	> 10000	> 10000	212	> 10000	641	> 1	> 3000	> 1000	> 300	> 1000	> 10000	> 10000	> 10000	> 2000	> 3000	> 10000	> 20000	> 10000	> 1000	> 5000	> 1000	–	–
LNZTA3WT4 (Low Grade Glioma)	> 10000	624	> 1000	> 1000	> 1000	> 1000	> 10000	269	> 10000	4630	> 10000	4500	> 10000	> 10000	> 10000	> 10000	99.7	> 10000	18.7	> 1	141	> 1000	> 300	> 1000	> 10000	> 10000	> 10000	> 2000	> 3000	> 10000	> 20000	> 10000	> 1000	> 5000	> 1000	–	–
